Assay [1] concerns isolated mouse liver mitochondria. Put plainly: Mitochondrial calcium retention capacity assay (mPTP opening). The following applies: for calcium retention capacity before mPTP opening (in words): 2 µM CsA, 10 µM B52-Cy5/*B52-Cy5, 20 µM B53-Cy5/*B53-Cy5, vs DMSO; for Normalized # Pulses (calcium retention capacity ratio to DMSO): 60 µM CaCl2 pulses, individual mitochondrial preparations. How it is done: All procedures used in animal studies were approved by the Institutional Animal Care and Use Committee at Massachusetts General Hospital. Female C57BL/6J mice (Jackson Labs) age 10–12 weeks were anesthetized by isoflurane. The liver from one mouse was rinsed in ice-cold PBS, minced in ice-cold isolation buffer containing 0.28 M sucrose, 10 mM Hepes-KOH pH 7.2, 0.2 mM EDTA and 1% (w/v) bovine serum albumin, gently homogenized with four strokes of a tight-fitting Teflon pestle at 1,000 r.p.m., and then centrifuged for 10 min at 600g at 4 °C. The supernatant was recovered and centrifuged for 10 min at 8,000g at 4 °C. The loose outer buffy coat was rinsed off and the pellet resuspended gently in isolation buffer and the spins were repeated. […] The suspension was kept on ice and all assays performed within 4–6 h following isolation. Quality control was done with every preparation by adding 250 mcg mitochondria to 500 µL assay buffer containing 137 mM KCl, 10 mM Hepes-KOH pH 7.2, 2.5 mM MgCl2, 5 mM each of glutamate and malate, and 3 mM KH2PO4. Sequential 150 µM ADP pulses were then delivered. Only preparations with respiratory control ratio >6 (as assessed by the ratio of ADP-coupled state 3 respiration to state 4 respiration) were used for further experiments. Measurements were made in a custom-built spectrometer.
Two hundred and fifty micrograms of mouse liver mitochondria isolated as above were added to 500 µL assay buffer containing 125 mM KCl, 20 mM Hepes-KOH pH 7.2, 1 mM MgCl2, 5 mM each of glutamate and malate, and 3 mM KH2PO4. 0.5 µM Calcium Green 5N (Molecular Probes) was included to monitor extramitochondrial free Ca^2+. Fluorescence was continuously monitored in the custom-built fluorimeter described above, with excitation 470 nm and emission 520–560 nm. […] The calcium retention capacity ratio was obtained by normalizing the number of Ca^2+ pulses that could be taken up in a given condition by that taken up under DMSO control conditions, as previously described.

Assay [2] concerns the target T1, CypD S123E (Homo sapiens, UniProt P30405, S123E).
T1 construct: made in house; host or cells: E. coli BL21(DE3)
Put plainly: Chymotrypsin coupled prolyl-isomerase assay. The class given is biochemical. The following applies: prolyl-isomerase inhibition. The gist of the method:
(§1)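 Recombinant cyclophilin (5 nM final) in 25 mM HEPES pH 7.3, 100 mM NaCl, 0.01% Triton X-100 was preincubated with compound at 2–3 °C. It was then coupled with 25 µM α-chymotrypsin and 5 µM Suc-AAPF-AMC (LiCl/TFE), and AMC fluorescence was followed for 330 s.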

Assay [3] has as its target T2, CypB E121S (Homo sapiens, UniProt P23284, E121S).
T2 construct: Lane 14- SNA-CypB E121S (34-216);; His6 tag with TEV site (2BT vector); SNA remnant stays on the N-terminus (N, cleaved yes); made in house; host or cells: E. coli BL21(DE3)
Put plainly: biochemical. A digest of the protocol: as §1

The target of assay [4] is CypD (Homo sapiens, UniProt P30405). Nature of the assay: Competition anisotropy binding assay with A26-Fl. Also noted: PPIF (UniProtKB Entry P30405: residues 45–207); made in house; host or cells: E. coli BL21(DE3). The note with it: FP competition with 0.5 nM A26-Fl, 24 h. How it is done: (§2) Adapted from previous work[52], cyclophilin in assay buffer (25 mM HEPES pH 8.0, 100 mM NaCl, 0.01% Triton X-100) at a pre-determined concentration from Supplementary Table 6 was incubated with 0.5 nM A26-Fl for 10 min at room temperature in a flat-bottom black untreated 96-well plate (Corning). Competitor macrocycle was then added to each well and incubated for 24 h. Final assay volume was 100 µL with 0.25% DMSO. Fluorescence anisotropy was then measured using a Tecan Spark plate reader using 492 nm/523 nm excitation/emission settings.

Assay [5] has as its target T3, CypE (Homo sapiens, UniProt Q9UNP9).
T3 construct: PPIE (UniProtKB Entry Q9UNP9: residues 131–301); host or cells: E. coli BL21(DE3)
Nature of the assay: Competition anisotropy binding assay with A26-Fl. How it is done: as §2

Assay [6] has as its target T4, His6-CypD (Homo sapiens, UniProt P30405).
T4 construct: PPIF (UniProtKB Entry P30405: residues 45–207); made in house; host or cells: E. coli BL21(DE3)
Put plainly: Surface plasmon resonance analysis of CypD ligands. It is filed as binding. The following applies: immobilized CypD; read-out: KD CypD (SPR). How it is done: Adapting a previously used protocol, employing a Biacore T200 SPR, a Sensor S NTA (Biacore) chip was pre-loaded with 0.3 M NiCl2 and His6-CypD (50.24 nM, 1 µg mL^−1) within a solution of 10 mM HEPES, 150 mM NaCl, 0.005% Tween-20 and 1 mM TCEP (surface plasmon resonance (SPR) buffer). Protein was covalently immobilized subsequently with injection of 200 mM 1-ethyl-3-(3-dimethylaminopropyl)carbodiimide (EDC) 50 mM N-hydroxysuccinimide (NHS). EDC–NHS-activated chip was quenched by flowing 1 M ethanolamine over the chip. Compounds were dissolved in 1% DMSO/SPR buffer and flowed over the SPR chip. Binding analysis was conducted from raw sensorgram resonance unit (RU) values, where individual replicates represent kinetic fitted RU value during time of compound administration at each dose. RU values were normalized to DMSO treatment and the maximum RU value of 200 µM JOMBt. These values were evaluated using Prism v.9 by fitting one site-specific binding to calculate KD values.
For orientation: Surface plasmon resonance follows binding to a sensor surface in real time, without labels.

[7] abbreviates: mutant CypB E121S, read-out: Mutant Cyclophilin Prolyl Isomerase Inhibition IC50 Values, CypB E121S.
Setting [8] is: prolyl-isomerase inhibition, read-out: IC50 CypB E121S.

“And” between values parts separate entries of the source, which are not always exact repeats. Equal entries are not always repeated. Where two headings read alike, the source gives them in different places. Bounds are passed on as bounds.

T1 sequence (P30405 45-207 S123E): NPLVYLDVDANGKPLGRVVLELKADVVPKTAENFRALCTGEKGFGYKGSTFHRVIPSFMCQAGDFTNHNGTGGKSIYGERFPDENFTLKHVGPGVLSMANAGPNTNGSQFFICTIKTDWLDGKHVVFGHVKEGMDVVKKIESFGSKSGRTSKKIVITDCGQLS
T2 sequence (P23284 34-216 E121S): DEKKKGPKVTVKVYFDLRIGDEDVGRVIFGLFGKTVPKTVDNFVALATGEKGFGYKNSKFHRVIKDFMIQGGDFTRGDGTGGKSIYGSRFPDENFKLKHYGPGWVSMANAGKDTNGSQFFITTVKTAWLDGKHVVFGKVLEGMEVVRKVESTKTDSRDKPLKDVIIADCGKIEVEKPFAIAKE
T3 sequence (Q9UNP9 131-301): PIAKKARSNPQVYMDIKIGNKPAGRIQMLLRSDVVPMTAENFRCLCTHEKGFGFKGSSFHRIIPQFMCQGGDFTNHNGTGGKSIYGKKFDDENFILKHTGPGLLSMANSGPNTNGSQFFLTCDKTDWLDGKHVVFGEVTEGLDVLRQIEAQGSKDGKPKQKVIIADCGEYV
Sequence of CypD (P30405 45-207): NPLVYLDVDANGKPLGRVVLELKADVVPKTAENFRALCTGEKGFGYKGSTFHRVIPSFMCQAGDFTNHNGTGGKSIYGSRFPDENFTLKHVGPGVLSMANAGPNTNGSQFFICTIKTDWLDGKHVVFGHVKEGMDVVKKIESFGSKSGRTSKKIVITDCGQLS
T4 sequence (P30405 45-207): as above

On to `C[N+]1=C(C=CC=CC=C2N(CCCCCC(=O)NCCNC(=O)C3CCNC(=O)C=CC(=O)N4CCCC(Cc5ccccc5)(C4)C(=O)NC(Cc4ccc(-c5ccc(CC(C(=O)O)C(=O)O)cc5)cc4)C(=O)NCc4ccccc4CC(=O)N3)c3ccccc3C2(C)C)C(C)(C)c2ccccc21` (stereo not drawn) [*B52-Cy5], for which, in assay [1], the “calcium retention capacity before mPTP opening (in words)” value is “do not influence calcium retention capacity”. The “Normalized # Pulses (calcium retention capacity ratio to DMSO)” value in assay [1] (10 µM compound) was 1.

Turning to `C[N+]1=C(C=CC=CC=C2N(CCCCCC(=O)NCCNC(=O)C3CCNC(=O)C=CC(=O)N4CCCC(Cc5ccccc5)(C4)C(=O)NC(Cc4ccc(-c5ccc(C(CC(=O)O)CC(=O)O)cc5)cc4)C(=O)NCc4ccccc4CC(=O)N3)c3ccccc3C2(C)C)C(C)(C)c2ccccc21` (stereo not drawn) [*B53-Cy5], in assay [1], the “calcium retention capacity before mPTP opening (in words)” value is “do not influence calcium retention capacity”. The “Normalized # Pulses (calcium retention capacity ratio to DMSO)” value in assay [1] (20 µM compound) is recorded as 1.

In general, IC50 refers to the concentration that inhibits the measured activity by half. As to `NCCOCCNC(=O)[C@@H]1CCNC(=O)/C=C/C(=O)N2CCC[C@](Cc3ccccc3)(C2)C(=O)N[C@@H](Cc2ccc(-c3ccc(CCC(=O)O)cc3)cc2)C(=O)NCc2ccccc2CC(=O)N1` [Compound B23], the values for the IC50 in assay [2] and in assay [3] (setting [7]) were 23 nM and 8 nM, respectively.

Turning to `NCCOCCNC(=O)[C@@H]1CCNC(=O)/C=C/C(=O)N2CCC[C@](Cc3ccccc3)(C2)C(=O)N[C@@H](Cc2ccc(-c3ccc(C#CC(=O)O)cc3)cc2)C(=O)NCc2ccccc2CC(=O)N1` [Compound B25], the IC50 in assay [2] came out at 8 nM; in assay [3] (setting [7]) it was 2.2 nM.

Take `C[N+]1=C(C=CC=CC=C2N(CCCCCC(=O)NCCNC(=O)C3CCNC(=O)C=CC(=O)N4CCCC(Cc5ccccc5)(C4)C(=O)NC(Cc4ccc(-c5ccc(CC(C(=O)O)C(=O)O)cc5)cc4)C(=O)NCc4ccccc4CC(=O)N3)c3ccccc3C2(C)C)C(C)(C)c2ccccc21` (stereo not drawn) [Compound B52-Cy5]: the “calcium retention capacity before mPTP opening (in words)” value in assay [1] is listed as “substantially increased calcium retention capacity”. Besides, the “Normalized # Pulses (calcium retention capacity ratio to DMSO)” value in assay [1] (10 µM compound) was 4.333 and 3 and 4.

For `NCCOCCNC(=O)[C@@H]1CCNC(=O)/C=C/C(=O)N2CCC[C@](Cc3ccccc3)(C2)C(=O)N[C@@H](Cc2ccc(-c3ccc(CC(C(=O)O)C(=O)O)cc3)cc2)C(=O)NCc2ccccc2CC(=O)N1` [Compound B52], the half-inhibitory concentration (IC50) in assay [2] stood at 240 nM; in assay [3] (setting [8]) it was 8 nM.

As to `C[N+]1=C(C=CC=CC=C2N(CCCCCC(=O)NCCNC(=O)C3CCNC(=O)C=CC(=O)N4CCCC(Cc5ccccc5)(C4)C(=O)NC(Cc4ccc(-c5ccc(C(CC(=O)O)CC(=O)O)cc5)cc4)C(=O)NCc4ccccc4CC(=O)N3)c3ccccc3C2(C)C)C(C)(C)c2ccccc21` (stereo not drawn) [Compound B53-Cy5], the “calcium retention capacity before mPTP opening (in words)” value in assay [1] is on record as “substantially increased calcium retention capacity”. Further, the “Normalized # Pulses (calcium retention capacity ratio to DMSO)” value in assay [1] (20 µM compound) is 2.667 and 1.25 and 2.

Turning to `NCCOCCNC(=O)[C@@H]1CCNC(=O)/C=C/C(=O)N2CCC[C@](Cc3ccccc3)(C2)C(=O)N[C@@H](Cc2ccc(-c3ccc(C(CC(=O)O)CC(=O)O)cc3)cc2)C(=O)NCc2ccccc2CC(=O)N1` [Compound B53], the IC50 is 800 nM in assay [2] and 50 nM in assay [3] (setting [8]).

Usually Ki stands for the dissociation constant of the complex between target and ligand, obtained from inhibition or displacement. A low value points to higher affinity. As for `NC(=O)C1CCNC(=O)C=CC(=O)N2CCCC(Cc3ccccc3)(C2)C(=O)NC(Cc2ccc(-c3ccc(C=O)c(B(O)O)c3)cc2)C(=O)NCc2ccccc2CC(=O)N1` (stereo not drawn) [Compound C3A], the Ki in assay [4] worked out at 520 nM. Besides, the “selectivity for CypE over other tested cyclophilins” value in assay [5] (FP competition with A26-Fl) was no less than 10 fold.

The compound `NC(=O)[C@@H]1CCNC(=O)/C=C/C(=O)N2CCC[C@](Cc3ccccc3)(C2)C(=O)N[C@@H](Cc2ccc(-c3cccc(B(O)O)c3)cc2)C(=O)NCc2ccccc2CC(=O)N1` [Compound C6A] had a Ki in assay [5] (FP competition with 0.5 nM A26-Fl, 24 h) of 7000 nM. For the same compound, the “reduced potency relative to C3A” value in assay [5] (FP competition with A26-Fl, CypE) came out at 100 fold.

As a reminder, the Kd is the equilibrium constant for the complex coming apart. Take `NCCOCCNC(=O)C1CCNC(=O)C=CC(=O)N2CCCC(C2)C(=O)NC(Cc2ccco2)C(=O)NCc2ccccc2CC(=O)N1` (stereo not drawn) [JOMBt]: in assay [6], the Kd is 19000 nM.

For the origin of these results see publication PMC9596378, “Discovery and molecular basis of subtype-selective cyclophilin inhibitors” (Nature Chemical Biology, 2022).
